Results on 25 compounds are retold here after patent publication US9776995B2, “Bicyclic sulfonamide compounds as sodium channel inhibitors” (AMGEN INC., priority 2013, dated 2017).

What is called IC50 is the concentration that inhibits the measured activity by half. A high value points to weaker potency.

The target of one assay is Nav 1.7 (Homo sapiens (Human), UniProt Q15858). In words: in-vitro Nav 1.7 PX data. In kind it is cell-based.
Chain of Nav 1.7 (Q15858 whole entry): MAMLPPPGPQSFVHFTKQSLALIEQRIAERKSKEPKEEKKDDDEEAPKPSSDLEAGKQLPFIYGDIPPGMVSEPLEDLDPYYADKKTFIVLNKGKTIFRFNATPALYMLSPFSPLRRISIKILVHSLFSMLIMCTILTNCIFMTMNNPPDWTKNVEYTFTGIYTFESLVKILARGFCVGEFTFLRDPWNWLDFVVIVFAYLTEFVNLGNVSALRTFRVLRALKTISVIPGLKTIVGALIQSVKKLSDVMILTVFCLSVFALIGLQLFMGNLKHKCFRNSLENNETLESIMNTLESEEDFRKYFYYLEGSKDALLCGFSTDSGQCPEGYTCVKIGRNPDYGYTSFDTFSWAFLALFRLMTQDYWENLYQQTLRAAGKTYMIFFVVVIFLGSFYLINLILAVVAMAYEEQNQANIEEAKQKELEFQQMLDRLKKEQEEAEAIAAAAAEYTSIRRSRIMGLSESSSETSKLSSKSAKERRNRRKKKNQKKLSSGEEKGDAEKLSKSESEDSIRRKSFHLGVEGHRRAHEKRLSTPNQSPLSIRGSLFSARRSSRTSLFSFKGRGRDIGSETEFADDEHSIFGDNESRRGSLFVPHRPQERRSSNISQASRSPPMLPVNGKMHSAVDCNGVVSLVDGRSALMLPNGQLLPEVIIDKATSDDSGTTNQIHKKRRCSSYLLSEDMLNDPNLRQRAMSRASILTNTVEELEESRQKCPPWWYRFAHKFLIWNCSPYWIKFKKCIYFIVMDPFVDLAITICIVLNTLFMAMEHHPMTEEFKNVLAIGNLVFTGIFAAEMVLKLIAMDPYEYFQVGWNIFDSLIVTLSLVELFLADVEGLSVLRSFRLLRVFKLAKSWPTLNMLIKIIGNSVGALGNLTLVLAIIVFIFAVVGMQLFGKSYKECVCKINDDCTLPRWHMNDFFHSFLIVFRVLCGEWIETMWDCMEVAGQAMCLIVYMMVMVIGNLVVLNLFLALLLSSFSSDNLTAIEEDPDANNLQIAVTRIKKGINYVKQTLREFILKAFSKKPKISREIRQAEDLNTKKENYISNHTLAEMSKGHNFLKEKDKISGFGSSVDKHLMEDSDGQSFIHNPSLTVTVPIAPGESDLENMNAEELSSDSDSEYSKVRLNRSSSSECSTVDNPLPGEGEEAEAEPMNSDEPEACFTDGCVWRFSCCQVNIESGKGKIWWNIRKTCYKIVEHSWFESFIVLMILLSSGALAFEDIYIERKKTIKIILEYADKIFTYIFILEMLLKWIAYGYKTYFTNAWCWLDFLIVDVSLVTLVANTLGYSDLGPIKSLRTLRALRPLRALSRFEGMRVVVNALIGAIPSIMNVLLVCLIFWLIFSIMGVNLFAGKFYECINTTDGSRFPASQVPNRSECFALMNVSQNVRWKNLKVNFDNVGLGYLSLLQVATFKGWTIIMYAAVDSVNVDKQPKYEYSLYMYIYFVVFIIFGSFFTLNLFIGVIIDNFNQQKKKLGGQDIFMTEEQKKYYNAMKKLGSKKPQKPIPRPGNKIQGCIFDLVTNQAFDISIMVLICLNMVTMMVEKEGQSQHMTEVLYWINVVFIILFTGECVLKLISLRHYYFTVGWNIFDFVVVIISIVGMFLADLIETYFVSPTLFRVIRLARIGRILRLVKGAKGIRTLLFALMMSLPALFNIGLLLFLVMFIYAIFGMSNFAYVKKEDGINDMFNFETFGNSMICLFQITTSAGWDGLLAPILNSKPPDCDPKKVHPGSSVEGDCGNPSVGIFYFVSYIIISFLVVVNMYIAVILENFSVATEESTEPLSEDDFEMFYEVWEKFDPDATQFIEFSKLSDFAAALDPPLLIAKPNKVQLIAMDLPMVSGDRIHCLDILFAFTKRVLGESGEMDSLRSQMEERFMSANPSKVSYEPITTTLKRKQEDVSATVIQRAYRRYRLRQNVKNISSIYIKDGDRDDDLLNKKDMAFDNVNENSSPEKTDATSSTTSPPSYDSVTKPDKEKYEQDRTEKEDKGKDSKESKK
Settings: not given
`COc1cc(-c2cccc(C(F)(F)F)c2)c(F)cc1-c1nncc2cc(S(=O)(=O)Nc3ccon3)ccc12` [Example 3, 1-(2-FLUORO-5-METHOXY-3′-(TRIFLUOROMETHYL)-[1,1′-BIPHENYL]-4-YL)-N-(ISOXAZOL-3-YL)PHTHALAZINE-6-SULFONAMIDE] gave an IC50 of 0.0305 µM. With `COc1nnc(NS(=O)(=O)c2ccc3c(-c4ccc(-c5cc(F)cc(F)c5)cc4OC)nccc3c2)s1` [Example 8, 1-(3′,5′-DIFLUORO-3-METHOXY-[1,1′-BIPHENYL]-4-YL)-N-(5-METHOXY-1,3,4-THIADIAZOL-2-YL)ISOQUINOLINE-6-SULFONAMIDE], the half-maximal inhibitory concentration (IC50) turned out to be 3.29 µM. Same read-out and setting: in the case of `O=S(=O)(Nc1ccon1)c1ccc2c(-c3ccc(-c4cccc(F)c4)cc3CO)nccc2c1` [Example 12, 1-(3′-FLUORO-3-(HYDROXYMETHYL)-[1,1′-BIPHENYL]-4-YL)-N-(ISOXAZOL-3-YL)ISOQUINOLINE-6-SULFONAMIDE 2,2,2-TRIFLUOROACETATE] it was 2.21 µM; in that of `COc1cc(N2CC(F)(F)C2)c(C#N)cc1-c1nccc2cc(S(=O)(=O)Nc3ccon3)ccc12` [Example 23, 1-(5-CYANO-4-(3,3-DIFLUOROAZETIDIN-1-YL)-2-METHOXYPHENYL)-N-(ISOXAZOL-3-YL)ISOQUINOLINE-6-SULFONAMIDE], 0.988 µM; in that of `COc1cc(C(F)(F)F)ccc1-c1ncnc2cc(S(=O)(=O)Nc3ccon3)ccc12` [Example 38, N-(ISOXAZOL-3-YL)-4-(2-METHOXY-4-(TRIFLUOROMETHYL)PHENYL)QUINAZOLINE-7-SULFONAMIDE], 2.57 µM.

Staying with this assay, now noted: PatchXpress (PX), in vitro.
As to `COc1nc(Oc2ccc(F)cc2)ccc1-c1nccc2cc(S(=O)(=O)Nc3ccncn3)ccc12` [Example 45, 1-(6-(4-FLUOROPHENOXY)-2-METHOXYPYRIDIN-3-YL)-N-(PYRIMIDIN-4-YL)ISOQUINOLINE-6-SULFONAMIDE], inhibition was half-maximal at 1.51 µM (IC50). For `COc1nc(N(CC(C)C)CC(C)C)ccc1-c1nccc2cc(S(=O)(=O)Nc3ccncn3)ccc12` [Example 46, 1-(6-(DIISOBUTYLAMINO)-2-METHOXYPYRIDIN-3-YL)-N-(PYRIMIDIN-4-YL)ISOQUINOLINE-6-SULFONAMIDE], the IC50 turned out to be 13.6 µM. In turn, `COc1nc(NCC(C)(C)C)ccc1-c1nccc2cc(S(=O)(=O)Nc3ccncn3)ccc12` [Example 47, 1-(2-METHOXY-6-(NEOPENTYLAMINO)PYRIDIN-3-YL)-N-(PYRIMIDIN-4-YL)ISOQUINOLINE-6-SULFONAMIDE] had an IC50 of 0.899 µM. Still for that read-out and setting: for `COc1nc(OC2CCCCC2)ccc1-c1nccc2cc(S(=O)(=O)Nc3ccncn3)ccc12` [Example 65, 1-(6-(cyclohexyloxy)-2-methoxy-3-pyridinyl)-N-4-pyrimidinyl-6-isoquinolinesulfonamide] the value was 1.73 µM; for `COc1nc(OCC(C)(C)C)ccc1-c1nccc2cc(S(=O)(=O)Nc3ccncn3)ccc12` [Example 67, 1-(6-(2,2-dimethylpropoxy)-2-methoxy-3-pyridinyl)-N-4-pyrimidinyl-6-isoquinolinesulfonamide], 1.01 µM; for `COc1nc(N(C)CC(C)C)ccc1-c1nccc2cc(S(=O)(=O)Nc3ccncn3)ccc12` [Example 68, 1-(2-methoxy-6-(methyl(2-methylpropyl)amino)-3-pyridinyl)-N-4-pyrimidinyl-6-isoquinolinesulfonamide], 2.88 µM.

Staying with this assay, now noted: in-vitro Nav 1.7 PX data.
As to `O=S(=O)(Nc1nncs1)c1ccc2c(-c3ccc(-c4cccc(F)c4)cc3CO)nccc2c1` [Example 11, 1-(3′-FLUORO-3-(HYDROXYMETHYL)-[1,1′-BIPHENYL]-4-YL)-N-(1,3,4-THIADIAZOL-2-YL)ISOQUINOLINE-6-SULFONAMIDE], half-maximal inhibition (IC50) required 1.6 µM.

The compound `COc1cc(Oc2ccc(F)c(C)c2)ccc1-c1nccc2cc(S(=O)(=O)Nc3ccncn3)ccc12` [Example 29, 1-(4-(4-FLUORO-3-METHYLPHENOXY)-2-METHOXYPHENYL)-N-(PYRIMIDIN-4-YL)ISOQUINOLINE-6-SULFONAMIDE] displayed an IC50 of 1.58 µM. In turn, `COc1cc(-c2nccc3cc(S(=O)(=O)Nc4ccon4)ccc23)c(C)cc1-c1ccc(Cl)c(C)c1` [Example 35] gave an IC50 of 3.3 µM. Same read-out and setting: for `Cc1ccc(Oc2ccccn2)cc1-c1nccc2cc(S(=O)(=O)Nc3ccncn3)ccc12` [Example 40, 1-(2-METHYL-5-(PYRIDIN-2-YLOXY)PHENYL)-N-(PYRIMIDIN-4-YL)ISOQUINOLINE-6-SULFONAMIDE] the value was 5.69 µM.

Still in this assay, the particulars now being: in-vitro PX.
For `COc1cc(N2CC(F)(F)C2)c(C#N)cc1-c1nccc2cc(S(=O)(=O)Nc3nncs3)ccc12` [Example 24, 1-(5-CYANO-4-(3,3-DIFLUOROAZETIDIN-1-YL)-2-METHOXYPHENYL)-N-(1,3,4-THIADIAZOL-2-YL)ISOQUINOLINE-6-SULFONAMIDE], inhibition was half-maximal at 1.36 µM (IC50). `COc1cc(-c2cccc(F)c2)ccc1C1c2ccc(S(=O)(=O)Nc3nncs3)cc2CCN1C(C)=O` (stereo not shown) [Example 52, 2-ACETYL-1-(3′-FLUORO-3-METHOXY-[1,1′-BIPHENYL]-4-YL)-N-(1,3,4-THIADIAZOL-2-YL)-1,2,3,4-TETRAHYDROISOQUINOLINE-6-SULFONAMIDE] gave an IC50 of 1.69 µM.

Still in this assay, the particulars now being: in-vitro PX (PatchXpress) data.
Compound `COc1cc(-c2cc(F)cc(F)c2)ccc1-c1ccnc2cc(S(=O)(=O)Nc3nncs3)ccc12` [Example 13, 4-(3′,5′-DIFLUORO-3-METHOXY-[1,1′-BIPHENYL]-4-YL)-N-(1,3,4-THIADIAZOL-2-YL)QUINOLINE-7-SULFONAMIDE] yielded an IC50 of 0.453 µM. Consider `COc1cc(-c2cccc(F)c2)c(Cl)cc1-c1ncnc2cc(S(=O)(=O)Nc3cccnn3)ccc12` [Example 15, 4-(2-CHLORO-3′-FLUORO-5-METHOXY-[1,1′-BIPHENYL]-4-YL)-N-(PYRIDAZIN-3-YL)QUINAZOLINE-7-SULFONAMIDE], for which the IC50 turned out to be 0.11 µM. Still for that read-out and setting: for `COc1cc(-c2cccc(F)c2)ccc1-c1n[nH]c(=O)c2cc(S(=O)(=O)Nc3nncs3)ccc12` [Example 18, 1-(3′-FLUORO-3-METHOXY-[1,1′-BIPHENYL]-4-YL)-4-OXO-N-(1,3,4-THIADIAZOL-2-YL)-3,4-DIHYDROPHTHALAZINE-6-SULFONAMIDE] the value was 1.42 µM; for `COc1cc(-c2ccc(F)c(Cl)c2)c(Cl)cc1-c1ncnc2cc(S(=O)(=O)Nc3ccon3)ccc12` [Example 19, 4-(2,3′-DICHLORO-4′-FLUORO-5-METHOXY-[1,1′-BIPHENYL]-4-YL)-N-(ISOXAZOL-3-YL)QUINAZOLINE-7-SULFONAMIDE], 0.0078 µM. `COc1cc(Oc2cc(C)cc(F)c2)ccc1-c1nccc2cc(S(=O)(=O)Nc3nncs3)ccc12` [Example 32, 1-(4-(3-FLUORO-5-METHYLPHENOXY)-2-METHOXYPHENYL)-N-(1,3,4-THIADIAZOL-2-YL)ISOQUINOLINE-6-SULFONAMIDE] gave a half-maximal inhibitory concentration (IC50) of 0.129 µM.

The compound `COc1cc(-c2ncnc3cc(S(=O)(=O)Nc4ccon4)ccc23)c(C)cc1-c1ccc(Cl)c(C)c1` [Example 34] showed an IC50 of 2.61 µM. Consider `O=S(=O)(Nc1ccncn1)c1ccc2c(-c3ccc(C(F)(F)F)cc3C3CC3)ncnc2c1` [Example 36, 4-(2-CYCLOPROPYL-4-(TRIFLUOROMETHYL)-PHENYL)-N-(PYRIMIDIN-4-YL)QUINAZOLINE-7-SULFONAMIDE], for which it took 0.744 µM to reach half-maximal inhibition (IC50).

Still in this assay, the particulars now being: in-vitro PX data.
Compound `Cn1nccc1-c1cc(-c2cc(F)cc(F)c2)ccc1-c1nccc2cc(S(=O)(=O)Nc3ccon3)ccc12` [Example 4, 1-(3′,5′-DIFLUORO-3-(1-METHYL-1H-PYRAZOL-5-YL)-[1,1′-BIPHENYL]-4-YL)-N-(ISOXAZOL-3-YL)ISOQUINOLINE-6-SULFONAMIDE 2,2,2-TRIFLUOROACETATE] came in with an IC50 of 0.148 µM.
